Assay results taken from patent US10292385B2, “Method for supression of infection by plant virus” (priority 2014, dated 2019).

Tests used:
TYLCV = TYLCV infection suppression test on chemical-sprayed cherry tomatoes exposed to viruliferous adult sweetpotato whiteflies (Test Example 1); format: in vivo, tomato yellow leaf curl virus (TYLCV); details: for Percentage of TYLCV infection suppressed, Determined value: cherry tomato, 16 plants, PCR and symptom after 30 days
Text: Seedlings of cherry tomatoes (cultivar: ‘YellowPear’) were transferred to small pots and grown until 2- to 2.5-leaf stages. A chemical having been adjusted to a predetermined concentration by dilution was sprayed thereon in a sufficient amount (the amount was such that the chemical solution dripped from the leaves), and the plants on which the diluted chemical has been sprayed were dried under a shielded condition in a greenhouse. In an aluminum-made large test container (length×width×height =68×44×82 cm, the upper surface and four side surfaces thereof are present as mesh surfaces for aeration), 16 pots containing the chemical-sprayed cherry tomatoes were equally arranged, and installation stands for releasing adult sweetpotato whiteflies were arranged at two positions on a diagonal line in the container. Chemical-resistant adult sweetpotato whiteflies to chemicals such as organophosphorus insecticides, carbamate insecticides, synthetic pyrethroid insecticides, ecdysis regulating insecticides, and neonicotinoid insecticides (hereinafter, chemical resistant adult sweetpotato whiteflies is simply referred to as adult sweetpotato whiteflies) were released for 3 days to suck a cherry tomato for TYLCV acquisition, so that the whiteflies were acquired TYLCV. Note that the chemical-resistant sweetpotato whiteflies used were kindly provided from Kumamoto Agricultural Research Center. The cherry tomato leaves were cut out together with the adult sweetpotato whiteflies settled on the infected cherry tomato, and equally left on the two flying sources in the aluminum-made container. After the leaves wither up, the adult sweetpotato whiteflies spontaneously spread inside the test container. The adult sweetpotato whiteflies were equally scattered to the two flying sources such that the number of individuals released was approximately 1 or 2.5 per plant (e.g.: in the case where the number of the adult sweetpotato whitefly individuals is approximately 1 per plant, 8 whiteflies×2 positions=16 whiteflies in the test container). The release period was set to 7 days. In conducting the test, any test chemical was at a practical concentration. […]

adult whiteflies = assay: Observation of adult whitefly survival after spraying compound A; format: in vivo, sweetpotato whiteflies; details: one week after spraying
Text: From the above, it is conceivable that the present invention greatly enhances the effect of suppressing plant virus infection attained by the compound A.

Substance: glycerin diacetomonolaurate [compound A]
- Percentage of TYLCV infection suppressed, Corrected value (TYLCV; 1.0 whiteflies/plant, corrected with the untreatment of test plot 5): (50.0) %
- Percentage of TYLCV infection suppressed, Determined value (TYLCV; chemical-resistant adult sweetpotato whiteflies released 1.0 whiteflies/plant for 7 days): 62.5%
- Percentage of TYLCV infection suppressed, Determined value (TYLCV; chemical-resistant adult sweetpotato whiteflies released 2.5 whiteflies/plant for 7 days): 50.0%
- TYLCV infection suppressing effect (in words) (TYLCV; whiteflies released for 7 days on sprayed cherry tomato, corrected value compared with theoretical value): suppressed to some extent
- survival of adult whiteflies after spraying (adult whiteflies): adult whiteflies survived one week thereafter
